Assay results published in patent US12054744B2, “NK cells exhibiting an adaptive phenotype and methods for preparing and for using” (Regents of the University of Minnesota, priority 2015, dated 2024).

Columns and labels:
Type in all cases: cell-based, human
[1] = system: NK cells from CMV seropositive donors; test: Culture of CD3/CD19-depleted PBMCs with IL-15; FACS for CD45RA/CD45RO; details: autologous monocytes, 10 ng/mL IL-15, 7 days
Protocol: CD3/CD19-depleted peripheral blood mononuclear cells from typed healthy CMV seronegative and seropositive donors were cultured with 10 ng/mL IL-15. After 7 days, cells were harvested and analyzed by FACS. Shown are representative phenotypes from one CMV seropositive and one CMV seronegative donor both before and after culture (top). Cumulative data showing the percentages of CD3^−CD56^+CD45RA^−CD45RO^+ NK cells from five CMV seronegative and eight CMV seropositive donors pre- and post-culture are shown (bottom). Data are representative of two independent experiments. Paired student's t-tests were used to determine statistical significance within groups, and unpaired student's t-tests were used to determine statistical significance between groups (CMV seropositive and CMV seronegative). *p≤0.05, **p≤0.01, ***p≤0.001.
CD3/CD19-depleted peripheral blood mononuclear cells from typed healthy CMV seronegative and seropositive donors were cultured with 10 ng/mL IL-15. Percentages of CD3^−CD56^+CD45RA^−CD45RO^+ NK cells from CMV seronegative and CMV seropositive donors pre- and post-culture were measured using FACS.

TIGIT = test: Flow cytometry of TIGIT and other receptors on NK cells; details: cultured overnight; IL-15 10 ng/mL alone, or additional anti-CD16 1 μg/mL
Protocol: FIG. 11A. Purified NK cells from healthy blood donors were cultured before staining in the absence or presence of IL-15 (10 ng/mL) alone or with the additional stimulation of IL-12 (10 ng/mL) and IL-18 (100 ng/mL) for 18 hours or with stimulation with anti-CD16 (1 μg/mL) for 6 hours. One of four independent experiments is shown. NK cells were cultured with autologous MDSCs or freshly isolated monocytes at a 2:1 ratio in presence of IL-15 (10 ng/mL) for 5 days. Cells were stimulated with anti-CD16 six hours prior to analysis. Representative histograms for DNAM-1 (FIG. 11B) and TIGIT expression (FIG. 11C) and aggregate data for TIGIT expression (n=8) are shown as mean fluorescence intensity (MFI)±SEM. Two-Way ANOVA was used for statistical analysis. FIG. 11D. NK cells before and after co-culture with monocytes or MDSC were analyzed for co-expression of DNAM-1 and TIGIT. Representative data is shown of 3 independent experiments and 7 replicates. […]
Purified NK cells or MDS PBMC (FIG. 17) cultured with monocytes or MDSCs for different time points and with different stimuli were resuspended in staining buffer (PBS containing 0.5% human AB serum) and stained with fluorochrome-conjugated antibodies (Table IV). […] All cells were acquired by LSRII and analyzed by FlowJo. […]

[2] = system: PLZF expression in cord blood-derived CD56^dim NK cells; test: Intracellular PLZF staining of cord blood-derived CD56^dim NK cells after 14 days in culture; details: high-dose IL-15, IL-21 where added
Protocol: FIG. 6A. FACS plots of intracellular PLZF expression in cord blood-derived CD56^dim NK cells from a representative donor after 14 days in the indicated culture conditions. FIG. 6B. Cumulative data showing the percentage of PLZF″ NK cells after 14 days in each culture condition from 6 donors. Two independent experiments were performed. Error bars represent SEM.
Mononuclear cells were isolated from whole cord blood by density gradient centrifugation. T cells and B cells were depleted by positive magnetic selection using anti-CD3 and anti-CD19 microbeads, respectively. CD3/CD19-depleted cells were then added to irradiated OP9 cells at a concentration of 5×10^5 cells/well and cultured for 14 days in RPMI media+10% FBS supplemented with either 1 ng/mL IL-15 or 10 ng/mL IL-15 with or without 50 ng/mL IL-21.
Cord blood-derived NK cells were analyzed before culture and after 7 and 14 days of culture by fluorescence activated cell sorting (FACS) using the following extracellular and intracellular antibodies: BV785-conjugated anti-CD3 (BioLegend, San Diego, CA), PE-Cy7-conjugated anti-CD56 (BioLegend, San Diego, CA), BV605-conjugated anti-CD57 (BioLegend, San Diego, CA), APC-conjugated SYK (eBioscience, San Diego, CA), and PE-conjugated anti-PLZF (BD Biosciences, San Jose, CA).
Transcriptional silencing of the transcription factor promyelocytic leukemia zinc finger (PLZF) is a hallmark of adaptive NK cells that expand in response to CMV infection (Schlums et al. Immunity. 2015; 42(3):443-456). Intracellular staining for PLZF was performed in NK cells from freshly isolated mononuclear cells and from cells that were cultured for 14 days in vitro. Freshly isolated CD56^dimSYK^− NK cells from cord blood were predominantly PLZF-positive (99.3%±0.10). […] Therefore, IL-21 drives down PLZF expression in CD56^dimSYK^− NK cells, causing these cells to acquire adaptive characteristics (FIG. 6).

Substance: IL-15: cytokine in culture medium, low-dose 1 ng/mL or high-dose 10 ng/mL
- CD45RA/CD45RO phenotype of NK cells [1]: skew towards a CD45RA^−CD45RO^+ phenotype
- TIGIT expression on purified NK cells (TIGIT): slighted upregulated
- decrease in PLZF expression (percentage of PLZF-negative NK cells) ([2]; CD56^dimCD57^−SYK^+ NK cells): 9.93%±0.75
- decrease in PLZF expression (percentage of PLZF-negative NK cells) ([2]; CD56^dimCD57^−SYK^− NK cells): 7.05%±1.31
